The values that follow come from US4639459A, “Use of trifluoromethyl compounds” (priority 1985, dated 1987).

The conditions of data set [1]: human, in vivo; cited from earlier work.
Data set [2] can be described thus: Pharmacokinetic studies comparing relative distribution in brain and plasma. To be noted: rodents.

SMILES strings stand for the structures.

For the compound `Cc1ccc(/C(=C\CN2CCCC2)c2ccccn2)cc1` [Triprolidine, (E)-1-(4-methylphenyl)-1-(2-pyridyl)-3-pyrrolidinoprop-1-ene], in data set [1], the sedation and drowsiness result was “produces sedation and drowsiness in varying degrees in most patients”.

As to `O=C(O)/C=C/c1cccc(/C(=C/CN2CCCC2)c2ccc(C(F)(F)F)cc2)n1` [Compound of Formula (I), (E)-3-{6-[3-Pyrrolidino-1(4-Trifluoromethylphenyl)prop-1E-enyl]-2-pyridyl}acrylic acid], the “penetration of the brain” value in data set [2] is “does not readily penetrate the brains of rodents”.
